From the NIST ThermoML archive (doi:10.1021/je800224k)

Details: Liquid

CCCCCCCC[n+]1ccn(C)c1.F[P-](F)(F)(F)(F)F [1-octyl-3-methylimidazolium hexafluorophosphate]
Details	mass density [kg/m3]
293.15 K, 101.33 kPa, Vibrating tube method	1240.8
312.8 K, 10000 kPa, Bellows volumetry	1230
312.8 K, 20000 kPa, Bellows volumetry	1236
312.8 K, 30000 kPa, Bellows volumetry	1241
312.8 K, 40000 kPa, Bellows volumetry	1247
312.8 K, 50000 kPa, Bellows volumetry	1252
312.8 K, 60000 kPa, Bellows volumetry	1257
312.8 K, 70000 kPa, Bellows volumetry	1261
312.8 K, 80000 kPa, Bellows volumetry	1266
312.8 K, 90000 kPa, Bellows volumetry	1270
312.8 K, 100000 kPa, Bellows volumetry	1275
312.8 K, 110000 kPa, Bellows volumetry	1279
312.8 K, 120000 kPa, Bellows volumetry	1283
312.8 K, 130000 kPa, Bellows volumetry	1287
312.8 K, 140000 kPa, Bellows volumetry	1291
312.8 K, 150000 kPa, Bellows volumetry	1294
312.8 K, 160000 kPa, Bellows volumetry	1298
312.8 K, 170000 kPa, Bellows volumetry	1302
312.8 K, 180000 kPa, Bellows volumetry	1305
312.8 K, 190000 kPa, Bellows volumetry	1309
312.8 K, 200000 kPa, Bellows volumetry	1312
313.15 K, 101.33 kPa, Vibrating tube method	1225
332.6 K, 10000 kPa, Bellows volumetry	1215
332.6 K, 20000 kPa, Bellows volumetry	1221
332.6 K, 30000 kPa, Bellows volumetry	1227
332.6 K, 40000 kPa, Bellows volumetry	1233
332.6 K, 50000 kPa, Bellows volumetry	1238
332.6 K, 60000 kPa, Bellows volumetry	1243
332.6 K, 70000 kPa, Bellows volumetry	1248
332.6 K, 80000 kPa, Bellows volumetry	1253
332.6 K, 90000 kPa, Bellows volumetry	1257
332.6 K, 100000 kPa, Bellows volumetry	1262
332.6 K, 110000 kPa, Bellows volumetry	1266
332.6 K, 120000 kPa, Bellows volumetry	1270
332.6 K, 130000 kPa, Bellows volumetry	1274
332.6 K, 140000 kPa, Bellows volumetry	1278
332.6 K, 150000 kPa, Bellows volumetry	1282
332.6 K, 160000 kPa, Bellows volumetry	1286
332.6 K, 170000 kPa, Bellows volumetry	1290
332.6 K, 180000 kPa, Bellows volumetry	1293
332.6 K, 190000 kPa, Bellows volumetry	1297
332.6 K, 200000 kPa, Bellows volumetry	1300
333.15 K, 101.33 kPa, Vibrating tube method	1210
352.6 K, 10000 kPa, Bellows volumetry	1200
352.6 K, 20000 kPa, Bellows volumetry	1207
352.6 K, 30000 kPa, Bellows volumetry	1213
352.6 K, 40000 kPa, Bellows volumetry	1219
352.6 K, 50000 kPa, Bellows volumetry	1224
352.6 K, 60000 kPa, Bellows volumetry	1230
352.6 K, 70000 kPa, Bellows volumetry	1235
352.6 K, 80000 kPa, Bellows volumetry	1240
352.6 K, 90000 kPa, Bellows volumetry	1245
352.6 K, 100000 kPa, Bellows volumetry	1249
352.6 K, 110000 kPa, Bellows volumetry	1254
352.6 K, 120000 kPa, Bellows volumetry	1258
352.6 K, 130000 kPa, Bellows volumetry	1262
352.6 K, 140000 kPa, Bellows volumetry	1266
352.6 K, 150000 kPa, Bellows volumetry	1270
352.6 K, 160000 kPa, Bellows volumetry	1274
352.6 K, 170000 kPa, Bellows volumetry	1278
352.6 K, 180000 kPa, Bellows volumetry	1282
352.6 K, 190000 kPa, Bellows volumetry	1286
352.6 K, 200000 kPa, Bellows volumetry	1289
353.15 K, 101.33 kPa, Vibrating tube method	1195.2
372.8 K, 10000 kPa, Bellows volumetry	1186
372.8 K, 20000 kPa, Bellows volumetry	1193
372.8 K, 30000 kPa, Bellows volumetry	1199
372.8 K, 40000 kPa, Bellows volumetry	1205
372.8 K, 50000 kPa, Bellows volumetry	1211
372.8 K, 60000 kPa, Bellows volumetry	1217
372.8 K, 70000 kPa, Bellows volumetry	1222
372.8 K, 80000 kPa, Bellows volumetry	1227
372.8 K, 90000 kPa, Bellows volumetry	1232
372.8 K, 100000 kPa, Bellows volumetry	1237
372.8 K, 110000 kPa, Bellows volumetry	1242
372.8 K, 120000 kPa, Bellows volumetry	1246
372.8 K, 130000 kPa, Bellows volumetry	1250
372.8 K, 140000 kPa, Bellows volumetry	1255
372.8 K, 150000 kPa, Bellows volumetry	1259
372.8 K, 160000 kPa, Bellows volumetry	1263
372.8 K, 170000 kPa, Bellows volumetry	1267
372.8 K, 180000 kPa, Bellows volumetry	1271
372.8 K, 190000 kPa, Bellows volumetry	1274
372.8 K, 200000 kPa, Bellows volumetry	1278
392.8 K, 10000 kPa, Bellows volumetry	1171
392.8 K, 20000 kPa, Bellows volumetry	1179
392.8 K, 30000 kPa, Bellows volumetry	1186
392.8 K, 40000 kPa, Bellows volumetry	1192
392.8 K, 50000 kPa, Bellows volumetry	1198
392.8 K, 60000 kPa, Bellows volumetry	1204
392.8 K, 70000 kPa, Bellows volumetry	1209
392.8 K, 80000 kPa, Bellows volumetry	1215
392.8 K, 90000 kPa, Bellows volumetry	1220
392.8 K, 100000 kPa, Bellows volumetry	1225
392.8 K, 110000 kPa, Bellows volumetry	1230
392.8 K, 120000 kPa, Bellows volumetry	1235
392.8 K, 130000 kPa, Bellows volumetry	1239
392.8 K, 140000 kPa, Bellows volumetry	1243
392.8 K, 150000 kPa, Bellows volumetry	1248
392.8 K, 160000 kPa, Bellows volumetry	1252
392.8 K, 170000 kPa, Bellows volumetry	1256
392.8 K, 180000 kPa, Bellows volumetry	1260
392.8 K, 190000 kPa, Bellows volumetry	1264
392.8 K, 200000 kPa, Bellows volumetry	1268
413 K, 10000 kPa, Bellows volumetry	1157
413 K, 20000 kPa, Bellows volumetry	1165
413 K, 30000 kPa, Bellows volumetry	1172
413 K, 40000 kPa, Bellows volumetry	1179
413 K, 50000 kPa, Bellows volumetry	1185
413 K, 60000 kPa, Bellows volumetry	1191
413 K, 70000 kPa, Bellows volumetry	1197
413 K, 80000 kPa, Bellows volumetry	1203
413 K, 90000 kPa, Bellows volumetry	1208
413 K, 100000 kPa, Bellows volumetry	1213
413 K, 110000 kPa, Bellows volumetry	1218
413 K, 120000 kPa, Bellows volumetry	1223
413 K, 130000 kPa, Bellows volumetry	1228
413 K, 140000 kPa, Bellows volumetry	1232
413 K, 150000 kPa, Bellows volumetry	1237
413 K, 160000 kPa, Bellows volumetry	1241
413 K, 170000 kPa, Bellows volumetry	1245
413 K, 180000 kPa, Bellows volumetry	1249
413 K, 190000 kPa, Bellows volumetry	1253
413 K, 200000 kPa, Bellows volumetry	1257
432.7 K, 10000 kPa, Bellows volumetry	1144
432.7 K, 20000 kPa, Bellows volumetry	1152
432.7 K, 30000 kPa, Bellows volumetry	1159
432.7 K, 40000 kPa, Bellows volumetry	1166
432.7 K, 50000 kPa, Bellows volumetry	1173
432.7 K, 60000 kPa, Bellows volumetry	1179
432.7 K, 70000 kPa, Bellows volumetry	1185
432.7 K, 80000 kPa, Bellows volumetry	1191
432.7 K, 90000 kPa, Bellows volumetry	1197
432.7 K, 100000 kPa, Bellows volumetry	1202
432.7 K, 110000 kPa, Bellows volumetry	1207
432.7 K, 120000 kPa, Bellows volumetry	1212
432.7 K, 130000 kPa, Bellows volumetry	1217
432.7 K, 140000 kPa, Bellows volumetry	1222
432.7 K, 150000 kPa, Bellows volumetry	1226
432.7 K, 160000 kPa, Bellows volumetry	1231
432.7 K, 170000 kPa, Bellows volumetry	1235
432.7 K, 180000 kPa, Bellows volumetry	1239
432.7 K, 190000 kPa, Bellows volumetry	1243
432.7 K, 200000 kPa, Bellows volumetry	1247
452.5 K, 10000 kPa, Bellows volumetry	1130
452.5 K, 20000 kPa, Bellows volumetry	1138
452.5 K, 30000 kPa, Bellows volumetry	1146
452.5 K, 40000 kPa, Bellows volumetry	1153
452.5 K, 50000 kPa, Bellows volumetry	1160
452.5 K, 60000 kPa, Bellows volumetry	1167
452.5 K, 70000 kPa, Bellows volumetry	1173
452.5 K, 80000 kPa, Bellows volumetry	1179
452.5 K, 90000 kPa, Bellows volumetry	1185
452.5 K, 100000 kPa, Bellows volumetry	1191
452.5 K, 110000 kPa, Bellows volumetry	1196
452.5 K, 120000 kPa, Bellows volumetry	1201
452.5 K, 130000 kPa, Bellows volumetry	1206
452.5 K, 140000 kPa, Bellows volumetry	1211
452.5 K, 150000 kPa, Bellows volumetry	1216
452.5 K, 160000 kPa, Bellows volumetry	1220
452.5 K, 170000 kPa, Bellows volumetry	1225
452.5 K, 180000 kPa, Bellows volumetry	1229
452.5 K, 190000 kPa, Bellows volumetry	1233
452.5 K, 200000 kPa, Bellows volumetry	1237
472.3 K, 10000 kPa, Bellows volumetry	1116
472.3 K, 20000 kPa, Bellows volumetry	1125
472.3 K, 30000 kPa, Bellows volumetry	1133
472.3 K, 40000 kPa, Bellows volumetry	1141
472.3 K, 50000 kPa, Bellows volumetry	1148
472.3 K, 60000 kPa, Bellows volumetry	1155
472.3 K, 70000 kPa, Bellows volumetry	1162
472.3 K, 80000 kPa, Bellows volumetry	1168
472.3 K, 90000 kPa, Bellows volumetry	1174
472.3 K, 100000 kPa, Bellows volumetry	1180
472.3 K, 110000 kPa, Bellows volumetry	1185
472.3 K, 120000 kPa, Bellows volumetry	1191
472.3 K, 130000 kPa, Bellows volumetry	1196
472.3 K, 140000 kPa, Bellows volumetry	1201
472.3 K, 150000 kPa, Bellows volumetry	1205
472.3 K, 160000 kPa, Bellows volumetry	1210
472.3 K, 170000 kPa, Bellows volumetry	1215
472.3 K, 180000 kPa, Bellows volumetry	1219
472.3 K, 190000 kPa, Bellows volumetry	1223
472.3 K, 200000 kPa, Bellows volumetry	1228
